From patent US20180153780A1, “Composition For Providing High Lift And Color Deposit” (Zotos International, Inc., priority 2016, published 2018)

Assays:
[1] = Visual evaluation of the alkalizers' lightening power; details: conclusion from Tables 5 and 6, comparison of alkalizers
From the text: The examples above show hair lightening and hair coloring compositions. […]

[2] = Minolta L.A.B. (CIELAB) evaluation of lightening power on hair tresses; details: FIG. 1
Method: In all examples, the ΔE values were measured using a L.A.B. reading using the color measurement method of CIELAB which is used to mathematically compute and compare the color of hair tresses. The method was developed by CIE using L*, a* and b* values. L* represents the difference between light (where L*=100) and dark (where L* is 0); a represents the difference between green ([…]) and red (+a*); and b* represents the difference between yellow (+b*) and blue (−b*). This system then maps true color to a place on a three dimensional graph wherein the variables are calculated by the changes in their values and those changes are used to compute the ΔE value which is a change in color. Such a system is commercially known and used in the art.

Compound	lift on the darker hair [1]	lift when added to ammonium hydroxide and MEA, versus the same component alone [2]
N [ammonium hydroxide]	highest amount of lift	
O=[Si]([O-])[O-].[Na+].[Na+] [sodium metasilicate]		synergistic lift
